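48-hour exposure; five concentrations; linearly interpolated endpoints. Abbreviation: GI50, concentration required for 50% inhibition of growth.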 The source made the active and inactive calls. Rule as the data show it: active = GI50 up to about 1.1 µM and inactive = higher.
How the values were obtained:
Assay in all cases: NCI anticancer screen, dose series, 48 h
MDA-MB-231 = system: MDA-MB-231
HCT-15 = system: HCT-15
TK-10 = system: TK-10
BT-549 = system: BT-549
MDA-N = system: MDA-N
SW-620 = system: SW-620
EKVX = system: EKVX
SK-MEL-2 = system: SK-MEL-2
OVCAR-8 = system: OVCAR-8
NCI-H23 = system: NCI-H23
IGROV-1 = system: IGROV-1
HOP-62 = system: HOP-62
COLO 205 = system: COLO 205
K562 = system: K562
DU-145 = system: DU-145
CAKI-1 = system: CAKI-1
MOLT-4 = system: MOLT-4
SK-MEL-28 = system: SK-MEL-28
HCC 2998 = system: HCC 2998
SR = system: SR

Row | Compound | GI50 (MDA-MB-231) | GI50 (HCT-15) [µM] | GI50 (TK-10) | GI50 (BT-549) | GI50 (MDA-N) | GI50 (SW-620) | GI50 (EKVX) | GI50 (SK-MEL-2) | GI50 (OVCAR-8) | GI50 (NCI-H23) | GI50 (IGROV-1) | GI50 (HOP-62) | GI50 (COLO 205) | GI50 (K562) | GI50 (DU-145) | GI50 (CAKI-1) | GI50 (MOLT-4) | GI50 (SK-MEL-28) | GI50 (HCC 2998) | GI50 (SR)
1 | Cc1ccc(S(=O)(=O)NC(=O)NC(Cc2ccc(O)c(O)c2)C(=O)O)cc1 (stereo not given) | > 100 µM (inactive) | > 100 | > 100 µM (inactive) | > 100 µM (inactive) | > 100 µM (inactive) | 24.9 µM (inactive) | > 100 µM (inactive) | > 100 µM (inactive) | 81.8 µM (inactive) | > 100 µM (inactive) | > 100 µM (inactive) | > 100 µM (inactive) | > 100 µM (inactive) | 37.1 µM (inactive) | > 100 µM (inactive) | > 100 µM (inactive) | > 100 µM (inactive) | > 100 µM (inactive) |  | 
2 | Cc1cc(C)c2c(c1)CC1(Cc3cc(C)c(C)cc3C1=O)C2=O (stereo not given) | > 100 µM (inactive) | > 100 | > 100 µM (inactive) | > 100 µM (inactive) |  | 95.7 µM (inactive) | > 100 µM (inactive) | > 100 µM (inactive) | > 100 µM (inactive) |  | 90.4 µM (inactive) |  | > 100 µM (inactive) | > 100 µM (inactive) | > 100 µM (inactive) | > 100 µM (inactive) | > 100 µM (inactive) | > 100 µM (inactive) | > 100 µM (inactive) | 14.7 µM (inactive)
3 | O=C(c1ccccc1)c1cc(-c2ccccc2)c(-c2ccccc2)[nH]c(=O)c1=O | > 100 µM (inactive) | 28.3 | 56.2 µM (inactive) | 22.5 µM (inactive) | 38.5 µM (inactive) | 37.2 µM (inactive) | 33.7 µM (inactive) | 24.3 µM (inactive) | 37.4 µM (inactive) | 19 µM (inactive) | 60 µM (inactive) | 59.6 µM (inactive) | 27.2 µM (inactive) | 32.6 µM (inactive) |  | 30.9 µM (inactive) | 24.2 µM (inactive) | 42.2 µM (inactive) | 26.9 µM (inactive) | 24.1 µM (inactive)
4 | Fc1c(F)c(C(F)(F)F)c(F)c(F)c1N/N=C/c1cn(Cc2ccccc2)c2ccccc12 | 21 µM (inactive) | 25.2 | 25.2 µM (inactive) | 30.2 µM (inactive) |  | 30.9 µM (inactive) | 18.4 µM (inactive) | 25.6 µM (inactive) | 36.6 µM (inactive) | 27.5 µM (inactive) | 27.5 µM (inactive) | 2.24 µM (inactive) | 13.5 µM (inactive) | 31 µM (inactive) | 29.2 µM (inactive) | 21.3 µM (inactive) | 23.3 µM (inactive) | 34.8 µM (inactive) |  | 22.9 µM (inactive)
5 | CC(C)(C)C(=O)C(C(=O)C(C)(C)C)C(=O)C(C)(C)C | > 100 µM (inactive) | > 100 | > 100 µM (inactive) |  | > 100 µM (inactive) | > 100 µM (inactive) | > 100 µM (inactive) | > 100 µM (inactive) | > 100 µM (inactive) | > 100 µM (inactive) | > 100 µM (inactive) | > 100 µM (inactive) | > 100 µM (inactive) | > 100 µM (inactive) | > 100 µM (inactive) | > 100 µM (inactive) | > 100 µM (inactive) | > 100 µM (inactive) | > 100 µM (inactive) | > 100 µM (inactive)
6 | Cc1cc(=O)c2cc(/N=C/c3ccc([N+](=O)[O-])o3)ccc2o1 | > 100 µM (inactive) | 88.3 | > 100 µM (inactive) | 72.6 µM (inactive) |  | 63.5 µM (inactive) | > 100 µM (inactive) | > 100 µM (inactive) |  | > 100 µM (inactive) | > 100 µM (inactive) | > 100 µM (inactive) | > 100 µM (inactive) | 33.7 µM (inactive) | > 100 µM (inactive) | > 100 µM (inactive) | 37.4 µM (inactive) | > 100 µM (inactive) | > 100 µM (inactive) | 32.7 µM (inactive)
7 | O=c1c2cc(S(=O)(=O)O)ccc2nc(COc2ccc(Oc3ccc(Cl)cc3Cl)cc2)n1C(=S)Nc1ccc(Cl)cc1 |  | 21 | 18.3 µM (inactive) | 19.6 µM (inactive) | 22.1 µM (inactive) | 20.9 µM (inactive) | 21.8 µM (inactive) | 18.4 µM (inactive) | 21.6 µM (inactive) | 18.7 µM (inactive) | 28.3 µM (inactive) | 20.5 µM (inactive) | 18 µM (inactive) | 1.06 µM (active) | 27.7 µM (inactive) | 27.9 µM (inactive) |  |  |  | 1.53 µM (inactive)

From ChEMBL document CHEMBL1201862, “PubChem BioAssay data set” (2004)
